# Assay results reported in PMC6182140 (Nucleic Acids Research, 2018).
# Where two headings read alike, the source gives them in different places.
# Columns and labels:
# DNA = settings: cited from earlier work
# Protocol: (§1) Thus, each dNTP insertion step is carried out by a combination of pol η alone and pol η holoenzyme. However, if ...
# pol η–PCNA holoenzyme [1] = test: TLS time course of pol η on cisPt(GG) template; assay type: biochemical, human; settings: cisPt(GG) template 10 nM, pol η 40 nM; p15 with equimolar PCNA (p15), 10-fold excess PCNA (PCNA), or pol η alone; pH 8, 37°C
# Protocol: (§2) The 24-mer template oligonucleotide containing the cis-PtGG adduct was a kind gift from S.J. Sturla (ETH, Zürich) and was prepared and purified as described previously (Nilforoushan, 2015). All other DNA oligonucleotides, all HPLC purified, were synthesized by Biomers.net (Germany). The 18mer primer oligonucleotide was 5′-labeled with carboxyfluorescin (FAM) group. The labeled primer was mixed to the complementary template oligonucleotide at 1:1 (M/M) ratio in the presence of 150 mM Hepes–KOH pH 7.4, 500 mM KCl, 10 mM MgCl2, 250 mM NH4Ac, heated at 95°C for 5 min and then slowly cooled at room temperature.
# pJM879 ([33]), expressing N-terminal His-tagged human pol η, was a kind gift from R. Woodgate (NIH, USA). Human recombinant pol η was expressed and purified with a modified protocol: BL21 DE3 competent E. coli cells were transformed with pJM879. Plates containing […] kanamycin were used to identify kanamycin-resistant colonies that were picked and grown overnight at 37°C. […] Transformed E. coli cells were used to inoculate a 50 ml starter culture. After overnight growth at 37°C, 12 ml of the starter culture were put into 1 l of LB medium (containing […] kanamycin). After 6 h growth at 37°C, cells were harvested by centrifugation and pellet frozen at –80°C. […]
# pol η–PCNA holoenzyme [2] = test: TLS by pol η on cis-Pt template in the presence of RF-C; assay type: biochemical, human; settings: 50 µM dNTPs, 0.5 mM ATP, 150 nM ScRF-C, 400 nM pol η, 400 nM p15, 50 nM PCNA
# Protocol: Recombinant ScRF-C was obtained as a kind gift from the laboratory of Alessandro Costa (Francis Crick Institute), and was prepared following the procedure described in ([34]).
# (§3) All reactions were performed in a 10 μl final volume using the following conditions: 40 mM Tris pH 8, 1 mM dithiotreitol (DTT), 0.25 mg/ml bovine serum albumin (BSA), 10 mM Mg^2+ (unless otherwise stated in the figures or figure legends). Reactions were incubated at 37°C for 15 min, unless otherwise stated. Reaction mixtures were stopped by addition of standard denaturing gel loading buffer (95% formamide, […], xylene cyanol and bromophenol blue), heated at 95°C for 5 min and loaded on a 7-M urea 12% polyacrylamide (PA) gel.
# 18/24mer primer-template substrate bearing a cis-Pt adduct at the two guanines at positions +1
# and +2 of the template strand, in the presence of RF-C and in the absence (lanes 10-13) or in the
# Reactant concentrations were: 50
# (1 picture or pasted object on this page, not shown here)
# pol η–PCNA holoenzyme [3] = test: DNA synthesis by pol η on undamaged template; assay type: biochemical, human
# Protocol: as §2
# pJM879 ([33]), expressing N-terminal His-tagged human pol η, was a kind gift from R. Woodgate (NIH, USA). Human recombinant pol η was expressed and purified with a modified protocol: BL21 DE3 competent E. coli cells were transformed with pJM879. Plates containing […] kanamycin were used to identify kanamycin-resistant colonies that were picked and grown overnight at 37°C. […] Transformed E. coli cells were used to inoculate a 50 ml starter culture. After overnight growth at 37°C, 12 ml of the starter culture were put into 1 l of LB medium (containing […] kanamycin). After 6 h growth at 37°C, cells were harvested by centrifugation and pellet frozen at –80°C. The pellet was resuspended in 40ml of lysis buffer (50mM Tris–HCl pH 7.5, 0.3 M NaCl, 20 mM imidazole, 10% glycerol, 10 mM b-mercaptoethanol [BME], 1× lysozime (Eurobio, Courtaboeuf, France), 1× ethylenediaminetetraacetic acid [EDTA]-free protease inhibitor ([…]™ Protease Inhibitor Cocktail Tablets, Sigma-Aldrich), 1 mM phenylmethane sulfonyl fluoride [PMSF] and lysed through sonication. After ultracentrifugation at 98 000g at 4°C for 1.5 h, the supernatant was loaded onto a 1-ml Ni-NTA column (HisTrap™ HP, GE Healthcare). Column washing was performed with 3 ml of W1 buffer ([…] pH 7.5, 1 M NaCl, 20 mM imidazole, 10% glycerol, 10 mM BME) followed by 3 ml of W2 buffer (10 mM Na-phosphate pH 7.7, 0.3 M NaCl, 20 mM imidazole, 10% glycerol, 10 mM BME). Elution of target protein was obtained using buffer H (10 mM Na-phosphate pH 7.7, 0.3 M NaCl, 200 mM imidazole, 10% glycerol, 10 mM BME). The pol η positive fractions (0.5 ml each) were pooled and overnight dialyzed with buffer M (20 mM Na-phosphate pH 7.3, 0.1 M NaCl, 10% glycerol, 10 mM BME), in dialysis cassette (Slide-A-Lyzer™ Dialysis Cassettes, 3.5K MWCO, Thermo Scientific). Pool was then loaded onto a 1-ml cation exchanger column (HiTrap SP, Pharmacia Biotech). Buffer N (20 mM Na-phosphate pH 7.3, 0.5 M NaCl, 10% glycerol, 10 mM BME) was used to elute pol η with a linear gradient. The pol ηpositive fractions (0.5 ml each) were aliquoted and stored at –80°C in 20% final glycerol.
# as §3
# Figure 4. […] Reactants at the indicated concentrations were incubated at 37°C for 30 s and the reaction was stopped by addition of standard denaturing gel loading buffer.
# pol η = test: DNA synthesis by pol η without PCNA, undamaged control template; assay type: biochemical, human; settings: pol η 70 nM, p15 400 nM, no PCNA, control template 10 nM
# Protocol: pJM879 ([33]), expressing N-terminal His-tagged human pol η, was a kind gift from R. Woodgate (NIH, USA). Human recombinant pol η was expressed and purified with a modified protocol: BL21 DE3 competent E. coli cells were transformed with pJM879. Plates containing […] kanamycin were used to identify kanamycin-resistant colonies that were picked and grown overnight at 37°C. DNA purified from bacterial cultures using NucleoSpin® Plasmid (NoLid) kit ([…]-NAGEL, Düren, Germany) was digested to confirm the presence of the gene expressing pol η. Transformed E. coli cells were used to inoculate a 50 ml starter culture. After overnight growth at 37°C, 12 ml of the starter culture were put into 1 l of LB medium (containing […] kanamycin). After 6 h growth at 37°C, cells were harvested by centrifugation and pellet frozen at –80°C. […]
# PCNA (Homo sapiens) [4] = biological target: PCNA (Homo sapiens) (UniProt P12004); test: ITC; settings: cited from earlier work
# PCNA (Homo sapiens) [5] = biological target: PCNA (Homo sapiens) (UniProt P12004); test: SPR; settings: cited from earlier work
# PCNA = settings: read-out: Kd pol η–PCNA (SPR); surface plasmon resonance at 25°C; cited from earlier work
# Protocol: as §1
# UniProt P12004, sequence (P12004 whole entry): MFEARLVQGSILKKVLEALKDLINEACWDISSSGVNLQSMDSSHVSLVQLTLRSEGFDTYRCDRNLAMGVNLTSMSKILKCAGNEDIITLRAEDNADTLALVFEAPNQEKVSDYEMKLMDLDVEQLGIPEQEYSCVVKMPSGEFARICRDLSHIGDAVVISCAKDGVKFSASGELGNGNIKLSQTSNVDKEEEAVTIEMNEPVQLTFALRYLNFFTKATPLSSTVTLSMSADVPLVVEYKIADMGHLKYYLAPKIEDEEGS
molecule,measurement,setting,value
"p15: PCNA–associated factor, oncogenic 11 kDa intrinsically disordered protein",Kd,DNA; read-out: affinity of p15 for DNA,5000 nM
same,effect on lesion bypass / nucleotide incorporation,pol η–PCNA holoenzyme [1],reduced nucleotide incorporation at +2 and +3 positions
same,effect on TLS in the presence of RF-C,pol η–PCNA holoenzyme [2]; 40 nM cis-Pt 18/24mer,delays TLS by pol η–PCNA across a cis-Pt lesion even in the presence of RF-C
same,accumulated products in the presence of RF-C,pol η–PCNA holoenzyme [2]; p15 in combination with PCNA,accumulation of +1 and +2 products
same,effect on nucleotide incorporation at initial time point,"pol η–PCNA holoenzyme [3]; undamaged template 10 nM, with PCNA and p15 equimolar, lane 2, 37°C, pH 8",reduced nucleotide incorporation at position +2
same,effect on synthesis of full-length product,"pol η–PCNA holoenzyme [3]; undamaged template 10 nM, with PCNA and p15 equimolar, lanes 3–5, 37°C, pH 8",slowed down the synthesis of the full-length product
same,comparison of pol η inhibition by p15 and p15^41–72 in conjunction with PCNA,"pol η–PCNA holoenzyme [3]; undamaged template, 37°C for 30 s",able to reduce pol η synthesis at comparable levels
same,effect on DNA synthesis in combination with PCNA,"pol η–PCNA holoenzyme [3]; undamaged template, 37°C for 30 s, with respect to pol η and PCNA alone, synthesis stopped at +1 and +2",reduction of DNA synthesis
same,effect of p15 alone on pol η activity,pol η,does not affect the activity of the polymerase
p15PAF (from UniProt Q15004),Kd,PCNA (Homo sapiens) [4],1100 nM
pol η (from UniProt Q9Y253),Kd,PCNA (Homo sapiens) [5],400 nM
"pol η: human recombinant translesion synthesis polymerase η, N-terminal His-tagged (protein, UniProt Q9Y253 1-713, looked up, N-terminal His tag, human recombinant translesion synthesis polymerase η, N-terminal His-tagged) DNA polymerase eta: MATGQDRVVALVDMDCFFVQVEQRQNPHLRNKPCAVVQYKSWKGGGIIAVSYEARAFGVTRSMWADDAKKLCPDLLLAQVRESRGKANLTKYREASVEVMEIMSRFAVIERASIDEAYVDLTSAVQERLQKLQGQPISADLLPSTYIEGLPQGPTTAEETVQKEGMRKQGLFQWLDSLQIDNLTSPDLQLTVGAVIVEEMRAAIERETGFQCSAGISHNKVLAKLACGLNKPNRQTLVSHGSVPQLFSQMPIRKIRSLGGKLGASVIEILGIEYMGELTQFTESQLQSHFGEKNGSWLYAMCRGIEHDPVKPRQLPKTIGCSKNFPGKTALATREQVQWWLLQLAQELEERLTKDRNDNDRVATQLVVSIRVQGDKRLSSLRRCCALTRYDAHKMSHDAFTVIKNCNTSGIQTEWSPPLTMLFLCATKFSASAPSSSTDITSFLSSDPSSLPKVPVTSSEAKTQGSGPAVTATKKATTSLESFFQKAAERQKVKEASLSSLTAPTQAPMSNSPSKPSLPFQTSQSTGTEPFFKQKSLLLKQKQLNNSSVSSPQQNPWSNCKALPNSLPTEYPGCVPVCEGVSKLEESSKATPAEMDLAHNSQSMHASSASKSVLEVTQKATPNPSLLAAEDQVPCEKCGSLVPVWDMPEHMDYHFALELQKSFLQPHSSNPQVVSAVSHQGKRNPKSPLACTNKRPRPEGMQTLESFFKPLTH",Kd,DNA; read-out: affinity of pol η for DNA,30 nM
same,Kd,PCNA,400 nM
same,effect on lesion bypass / nucleotide incorporation,pol η–PCNA holoenzyme [1],able to complete the bypass
same,processivity,"pol η–PCNA holoenzyme [3]; undamaged template 10 nM, pol η alone or with PCNA, 37°C, pH 8",equal processivity
